Measured values: US20070081991A1, “Compositions and methods for modulation of immune responses” (Pepgen Corporation, priority 2001, published 2007)
Entries after “also recorded” stand apart in the source; their conditions may differ.

Key:
Assay type in all cases: cell-based, human
[1] = test system: NKL and Nishi effector cells; test: Killing of K562-E*01033 cells grown at increasing cell density (stress), 2 h 51Cr release; conditions: peptide added in the assay; 100 mM B7sp (FIG. 6b legend)
Protocol: (a) Killing of K562-E*01033 cells (grown at increasing cell densities as in FIG. 3b) by NKL in a 2 h 51Cr release assay. (b) Same experimental setting as above, in the presence of 100 mM B7sp. Closed circles-high density; open squares-medium density; closed triangles-low density. (c) HLA-E expression on the K562-E*01033 cells after culture at increasing cell density.
Briefly, cell cultures were set up at the cell concentration of 0.2.10^6 cells/ml at different time points for a period of up to 6 days. At the end point, cell concentration and viability were determined by trypan blue exclusion. The expression of cell-surface HLA class I molecules was assessed by flow cytometry. Cell cultures with viability higher than 90% and at three different densities were selected as targets for cytotoxic assays. HLA-E Tetramer Production
K562-E*01033 cells grown at different densities were tested as targets in a 2 hours chromium release assay with NKL and Nishi as effector cells. […] The data also subbest that HLA-E expression induced by stress is not sufficient to protect from NK cell mediated killing. […] Therefore it is unlikely that the increased killing after cellular stress observed in some of the experiments herein is due to an increased expression of MIC-A or MIC-B. Up-regulation of other activating ligands, e.g., ULBP's, may also be responsible for the increase in killing.

[2] = test system: CD94/NKG2A+ NK cell lines Nishi and NKL; test: NK cell-mediated cytotoxicity, 2 h 51Cr release, peptide-loaded K562-E*01033 targets; conditions: targets incubated overnight at 26° C. with peptide; effectors NKL and Nishi
Protocol: K562-E*01033 cells were incubated with the different peptides at 26° C. for 15-20 hours, and then tested in 2 h 51Cr release assays. In order to ensure that the levels of HLA-E with a protective peptide, and not the HLA-E levels as such, provided the protective capacity we kept the non-protective peptides, but omitted the B7sp, during the assays. (a) Killing of K562-E*01033 cells by NKL (left) or Nishi (right) after incubation with […], 300 mM hsp60sp, or 30 mM B7sp. 50 mM of P18I10 control peptide and hsp60sp was also included during the assays. Data from an E:T ratio of 30:1 is shown. The figure represents the mean of at least three experiments. Error bars indicate standard error of the mean. (b) Killing of K562-E*01033 cells by NKL (left panel) or Nishi (right panel) incubated over night with 30 mM 7sp, 300 mM P18I10 (pCtrl), 300 mM B7 R5V, 300 mM hsp60sp, or 300 mM hsp60 V5R. 50 mM of all peptides, except B7sp, were included during the assay. Peptide concentrations were chosen according to FIG. 5c. The figure represents the mean of at least three experiments. Error bars indicate standard error of the mean. (c) HLA-E cell surface expression by K562-E*01033 after the assay. A cold target preparation was prepared in parallel as in (a) and (b), and then stained with DX17 mAb (anti-HLA class I), followed by RPE-conjugated goat-anti-mouse IgG. One representative example out of more than 5 is shown. Note that, as in (a) and (b), 50 mM of all peptides, except for B7sp, was present during the time of the assay, explaining the lower HLA-E expression with B7sp compared to Hsp60sp, Hsp60 V5R and B7 R5V. (d) Killing of K562-E*01033 cells by Nishi after incubation for 30 min at room temperature with 0.1 mM B7sp and increasing amounts of competing peptides (hsp60sp, hsp60.4, B7 R5V and P18I10). All the peptides were kept throughout the assay
NK cell-mediated cytotoxicity was measured using a 2 hours standard ^51Cr radioisotope release assay. Briefly, target cells were incubated for 15-20 hours at 26° C. with the various peptides at concentrations ranging from 1-300 μM, and then labeled with ^51Cr. Peptides were washed away prior to setting up the assays, except in some experiments where the non-protective hsp60sp, B7 R5V and hsp60 V5R was kept throughout the assay to assure higher levels of HLA-E expression, as compared to targets incubated with the protective B7sp. In mAb blocking experiments, cells were preincubated with mouse serum, or an irrelevant isotype matched antibody to block Fc-receptors. Blocking of either target or effector cells with mAbs was performed at 4° C., and the antibodies were also included during the assays. […]

[3] = test system: HLA-E; test: HLA-E stabilization assay (cell surface expression by flow cytometry); conditions: K562 cells transfected with HLA-E*01033 or HLA-E*0101; overnight incubation with peptide at 26° C.
Protocol: Synthetic peptides, purchased from Research Genetics, were dissolved in PBS. The peptides used were B7sp ([…]) (SEC ID NO: 3), hsp60sp ([…]) (SEC ID NO: 2), B7 R5V ([…]) (SEC ID NO: 14), hsp60 V5R ([…]) ([…]), and P18I10 ([…]) (SEC ID NO: 113) (all from Research Genetics, Huntsville, Ala.). Cells and their HLA-E transfected derivatives were incubated with synthetic peptides (3-300 μM) at 26° C. for 15-20 hours in serum-free AIM-V medium (GibcoBRL, Paisley Scotland) at a concentration of 1-3.10^6 cells/ml. Cells were then harvested, washed in PBS, stained with mAbs and analyzed by flow cytometry. Cells were subjected to stress by allowing them to grow at increasing cell density.
To test whether the hsp60-derived peptides were able to bind HLA-E, stabilized HLA-E cell surface expression was stabilized with the different synthetic peptides, by overnight incubation at 26° C. For this purpose MHC class I-deficient cell lines such as 721.221 (which lack HLA-A, -B, -C, and -G, but express HLA-E and -F intracellularly), as well as K562 cells transfected with HLA-E*01033 (K562-E*01033) or HLA-E*0101 were employed. The 721.221 cells and HLA-E transfected, but not untransfected, K562 cells express low levels of HLA-E at the cell surface during normal cell growth.

[4] = test system: NK cells of PB and SF mononuclear cells of RA patients; test: NK cell cytokine production on contact with peptide stabilized K562 HLA-E*01033 cells (intracellular staining, flow cytometry); conditions: K562 HLA-E*01033 stabilized with various doses of peptide; 1:1 cell ratio, 4 hours
Protocol: HLA-E expression was stabilized on K562 cells transfected with HLA-E*01033, by incubation with various doses of HLA-B7 signal sequence derived peptide ([…]) (SEQ ID NO: 3). PB and SF mononuclear cells (MC) of RA patients were then incubated with peptide stabilized K562 cells (1:1 cell ratio) for 4 hours in the presence of GolgiStop™. Cells were surface stained for CD3 and CD56 and thereafter stained intracellularly for IFN-gamma or TNF-alpha. Analysis was performed by flow cytometry.

Sequence: VMAPRTVLL [B7sp]
- rescue of stressed (high density) K562-E*01033 cells from killing [1]: could be rescued from killing by addition of B7sp peptide; also recorded: stressed cells were protected simply by adding the protective B7sp peptide
- protection of K562-E*01033 cells from killing by NK cells [2]: clear protection from killing
- HLA-E cell surface expression (stabilization) [3]: stabilization of HLA-E
- NK cell IFN-gamma production [4]: sufficient to inhibit NK cell IFN-gamma and TNF-alpha cytokine production
- NK cell TNF-alpha production [4]: sufficient to inhibit NK cell IFN-gamma and TNF-alpha cytokine production
